Experimental data as given in patent US7531194B2, “Plant extracts for the treatment of rheumatoid arthritis” (Development Center for Biotechnology, priority 2006, dated 2009).

Experiments:
Assay type in all cases: in vivo, Lewis rats
[1] = system: CIA rats; assay: Maximum arthritic index (MAI) of CIA rats fed PA crude extracts (Embodiment 2); settings: gavage until Day 45, PA-H 375, PA-L 75, indomethacin 2.5 mg/kg/day, FIG. 4
Method: The animal test scheme is shown as FIG. 2. Bovine collagen Type II (Bovine C II) was dissolved in 0.1 M acetic acid solution, stirred to dissolve thoroughly, and formulated into solutions with concentrations of 1.5 and 3 mg/ml, which were stored in 4° C. for later use. For the first immune injection, 100 μl of C II solution was emulsified with an equal amount of CFA, and injected subcutaneously (200 μl/rat) in the root portions of tails of the rats after the emulsification was complete. […] After about 15 days, the second immunization was done. 100 μl of C II solution was emulsified with an equal amount of IFA, and injected subcutaneously (200 μl/rat) in the root portions of tails of the rats after the emulsification was complete. Approximately from Day 20, the symptoms of arthritis were observed (CIA rats), and PA and indomethacin were fed until Day 45. [table] 2. Evaluation of RA examination: evaluated in maximum arthritic index (MAI) After immunization, the rats were observed three times a week. The changes of redness and swelling or the like in limbs were recorded, and photographs were taken and filed for comparison. […] Maximum arthritic index, average MAI for each group was calculated as follows: Average MAI=Total of MAI recorded in limbs of each rat (0: no CIA occurs, 16: highest score)/4/total rat number of each group

[2] = system: C-reactive protein (CRP); assay: Serum C-reactive protein (CRP) analysis of CIA rats fed PA crude extracts (Embodiment 2)
Method: The animal test scheme is shown as FIG. 2. Bovine collagen Type II (Bovine C II) was dissolved in 0.1 M acetic acid solution, stirred to dissolve thoroughly, and formulated into solutions with concentrations of 1.5 and 3 mg/ml, which were stored in 4° C. for later use. For the first immune injection, 100 μl of C II solution was emulsified with an equal amount of CFA, and injected subcutaneously (200 μl/rat) in the root portions of tails of the rats after the emulsification was complete. […] After about 15 days, the second immunization was done. 100 μl of C II solution was emulsified with an equal amount of IFA, and injected subcutaneously (200 μl/rat) in the root portions of tails of the rats after the emulsification was complete. Approximately from Day 20, the symptoms of arthritis were observed (CIA rats), and PA and indomethacin were fed until Day 45. [table] 1. CRP ELISA kit was a pre-coated microplate, into which 0.1 ml of appropriately diluted serum sample could be added directly. After being reacted for 1 hour at room temperature, it was washed by the washing buffer four times. 2. Rabbit anti-rat C-reactive protein (CRP) was combined with HRP Ab, diluted with the washing buffer 100 times, and then 0.1 ml was added into each well. […] Finally, O.D value was read out at the wavelength of 450 nm. […]

[3] = system: TNF-α; assay: Abdominal cavity cell (PEC) culture, cytokine TNF-α, CIA rats fed PA crude extracts (Embodiment 2); settings: LPS 10 μg/ml, 24 hours, FIG. 8
Method: (§1) The animal test scheme is shown as FIG. 2. Bovine collagen Type II (Bovine C II) was dissolved in 0.1 M acetic acid solution, stirred to dissolve thoroughly, and formulated into solutions with concentrations of 1.5 and 3 mg/ml, which were stored in 4° C. for later use. For the first immune injection, 100 μl of C II solution was emulsified with an equal amount of CFA, and injected subcutaneously (200 μl/rat) in the root portions of tails of the rats after the emulsification was complete. […] After about 15 days, the second immunization was done. 100 μl of C II solution was emulsified with an equal amount of IFA, and injected subcutaneously (200 μl/rat) in the root portions of tails of the rats after the emulsification was complete. Approximately from Day 20, the symptoms of arthritis were observed (CIA rats), and PA and indomethacin were fed until Day 45. [table] 1. After carbon dioxide euthanasia, the outer furs of the rat abdominal cavity were cut out by scissors, to expose the whole abdominal cavity. 2. HBSS buffer was injected into the abdominal cavity batch-wise by a 10 ml syringe to make a total volume of about 20 ml/rat. 3. The abdominal cavity of the rat was opened after the abdomen was gently kneaded. An incision of about 2 cm was made in the abdominal cavity by using scissors. […] The concentrations of cytokine TNF-α, IL-6, and IL-1β were analyzed by using ELISA kit.

[4] = system: IL-1β; assay: Abdominal cavity cell (PEC) culture, cytokine IL-1β, CIA rats fed PA crude extracts (Embodiment 2); settings: LPS 10 μg/ml, 24 hours, FIG. 8
Method: as §1

SMILES: COc1ccc2c(c1)c(CC(=O)O)c(C)n2C(=O)c1ccc(Cl)cc1 [indomethacin, Indomethacin]
- effect on the arthritic indices (MAI) of CIA rats [1]: most preferred
- effect on serum CRP concentration ([2]; Day 35, PA-H 375, PA-L 75, indomethacin 2.5 mg/kg/day, FIG. 7): efficiently inhibited
- effect on serum CRP concentration ([2]; Day 45, FIG. 7): same effects still exist
- inhibition of PEC secreting TNF-α [3]: no effect of inhibiting PEC from secreting inflammatory cytokine
- inhibition of PEC secreting IL-1β [4]: no effect of inhibiting PEC from secreting inflammatory cytokine
